Reference: article PMC11258883 (Protein Science : A Publication of the Protein Society, 2024)

Target: T1, MenD (Escherichia coli, UniProt P17109)
T1 sequence (P17109 1-556): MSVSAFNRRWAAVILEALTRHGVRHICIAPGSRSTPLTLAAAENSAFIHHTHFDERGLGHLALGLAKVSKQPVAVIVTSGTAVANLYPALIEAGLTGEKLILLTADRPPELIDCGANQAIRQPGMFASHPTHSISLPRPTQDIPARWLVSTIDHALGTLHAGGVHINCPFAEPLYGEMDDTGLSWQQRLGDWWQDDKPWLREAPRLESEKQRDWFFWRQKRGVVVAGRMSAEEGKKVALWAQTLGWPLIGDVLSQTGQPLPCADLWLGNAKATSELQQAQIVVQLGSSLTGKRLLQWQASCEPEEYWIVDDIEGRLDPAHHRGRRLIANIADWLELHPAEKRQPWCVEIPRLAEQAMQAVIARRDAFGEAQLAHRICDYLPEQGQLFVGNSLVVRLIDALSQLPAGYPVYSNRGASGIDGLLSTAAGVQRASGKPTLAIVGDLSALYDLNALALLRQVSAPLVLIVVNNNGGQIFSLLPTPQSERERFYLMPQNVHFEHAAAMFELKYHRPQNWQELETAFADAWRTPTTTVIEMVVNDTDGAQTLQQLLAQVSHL
Experiment: MenD activity assay, OD278 decrease
Assay type: biochemical
Details: 66 nM MenD, 50 μM thiamine pyrophosphate, 660 μM 2-ketoglutarate, 5 mM MgSO4, pH 8.0; chorismate:isochorismate equilibrium mixture

In the case of C=C(O[C@H]1C=CC=C(C(=O)O)[C@@H]1O)C(=O)O [isochorismate], the “MenD activity assay, OD278 decrease” value is reported as “initial velocities were measured as decrease in OD278 upon MenD consumption of isochorismate”.
